Source: ChEMBL document CHEMBL1157844, “QSAR study of flavonoids and biflavonoids as influenza H1N1 virus neuraminidase inhibitors” (Eur J Med Chem, 2010)

Assays:
[1] = target: Neuraminidase (Influenza A virus (A/Puerto Rico/8/1934(H1N1))) (UniProt P03468); assay: (§1) Inhibition of Influenza A PR/8/34 H1N1 virus neuraminidase activity by MUN-ANA substrate based fluorimetric assay; parameters: unit not given here
[2] = target: Neuraminidase (Influenza A virus (A/Puerto Rico/8/1934(H1N1)), UniProt P03468); assay: as §1
Neuraminidase (Influenza A virus (A/Puerto Rico/8/1934(H1N1)), UniProt P03468), sequence (P03468 whole entry): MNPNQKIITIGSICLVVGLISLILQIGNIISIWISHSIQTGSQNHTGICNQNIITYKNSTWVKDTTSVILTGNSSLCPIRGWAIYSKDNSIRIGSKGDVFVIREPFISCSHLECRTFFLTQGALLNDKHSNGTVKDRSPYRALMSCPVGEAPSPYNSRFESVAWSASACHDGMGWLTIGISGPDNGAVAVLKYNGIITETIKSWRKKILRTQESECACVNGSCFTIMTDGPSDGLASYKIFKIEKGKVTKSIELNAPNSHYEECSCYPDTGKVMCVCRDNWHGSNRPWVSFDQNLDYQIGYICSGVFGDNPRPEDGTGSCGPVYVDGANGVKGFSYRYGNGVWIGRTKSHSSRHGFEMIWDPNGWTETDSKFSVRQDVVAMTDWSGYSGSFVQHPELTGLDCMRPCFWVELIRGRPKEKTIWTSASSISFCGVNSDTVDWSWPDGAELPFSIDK

Neuraminidase (Influenza A virus (A/Puerto Rico/8/1934(H1N1))), sequence (P03468 whole entry): as above

| SMILES | logIC50 [1] | IC50 [2] [µM] |
| --- | --- | --- |
| COc1ccc(-c2cc(=O)c3c(O)c(Oc4ccc(-c5cc(=O)c6c(O)cc(OC)cc6o5)cc4)c(O[C@]4(C(=O)O)C[C@H](O)[C@@H](NC(C)=O)[C@H]([C@@H](O)[C@@H](O)CO)O4)cc3o2)cc1 | 1.28 | 22.3 |
| O=C1/C(=C\c2ccccc2)Oc2cc(O)ccc21 | 1.23 | 72 |
| O=C(Oc1cc(O)c2c(c1)OC(c1cc(O)c(O)c(O)c1)CC2)c1cc(O)c(O)c(O)c1 (stereo unspecified) | 1.2 | 35.5 |
| O=C1/C(=C\c2ccc(O)cc2)Oc2cc(O)ccc21 | 0.748 | 22 |
| O=c1c(O[C@H]2O[C@@H](CO)[C@H](O)[C@@H](O)[C@@H]2O[C@@H]2OC[C@@H](O)[C@H](O)[C@H]2O)c(-c2ccc(O)cc2)oc2cc(O)cc(O)c12 (stereo in doubt) | 1.39 | 42.2 |
| COc1c(O)cc(O)c2c(=O)cc(-c3ccc(O)cc3)oc12 [4'-HYDROXYWOGONIN] | 1.12 | 43.8 |
| O=c1cc(-c2ccc(O)cc2)oc2cc(O)cc(O)c12 [APIGENIN] | 0.932 | 31.6 |
| O=c1cc(-c2ccccc2)oc2cc(O)cc(O)c12 [CHRYSIN] | 1.06 | 45.7 |
| O=c1c(-c2ccc(O)cc2)coc2cc(O)ccc12 [DAIDZEIN] | 0.975 | 37.1 |
| O=c1cc(-c2ccc(O)c(O)c2)oc2cc(O[C@@H]3O[C@H](CO)[C@@H](O)[C@H](O)[C@H]3O)cc(O)c12 [GALUTEOLIN] | 1.33 | 47.4 |
| O=c1c(-c2ccc(O)cc2)coc2cc(O)cc(O)c12 [GENISTEIN] | 1.32 | 77.1 |
| COc1cc(O)c2c(=O)cc(-c3ccc(OC)c(-c4c(O)cc(O)c5c(=O)cc(-c6ccc(O)cc6)oc45)c3)oc2c1 [GINKGETIN] | 1.74 | 97.1 |
| O=c1cc(-c2ccc(Oc3c(O)cc4oc(-c5ccc(O)cc5)cc(=O)c4c3O)cc2)oc2cc(O)cc(O)c12 [HINOKIFLAVONE] | 1.62 | 77.6 |
| COc1c(O)cc2oc(-c3ccc(O)cc3)cc(=O)c2c1O [HISPIDULIN] | 1.14 | 46.3 |
| O=c1c(O)c(-c2ccc(O)cc2)oc2cc(O)cc(O)c12 [KAEMPFEROL] | 1.23 | 58.6 |
| O=c1cc(-c2ccc(O)c(O)c2)oc2cc(O)cc(O)c12 [LUTEOLIN] | 0.984 | 33.7 |
| O=c1c(O)c(-c2cc(O)c(O)c(O)c2)oc2cc(O)cc(O)c12 [MYRICETIN] | 1.42 | 82.6 |
| O=c1c(O)c(-c2ccc(O)c(O)c2)oc2cc(O)cc(O)c12 [QUERCETIN] | 1.25 | 58.4 |
| COc1cc(O)c2c(=O)c(O)c(-c3ccc(O)cc3)oc2c1 [RHAMNOCITRIN] | 1.19 | 51.5 |
| C[C@@H]1O[C@@H](OC[C@H]2O[C@@H](Oc3c(-c4ccc(O)c(O)c4)oc4cc(O)cc(O)c4c3=O)[C@H](O)[C@@H](O)[C@@H]2O)[C@H](O)[C@H](O)[C@H]1O [RUTIN] | 1.49 | 51 |
| O=c1cc(-c2ccc(O)cc2)oc2cc(O)c(O)c(O)c12 [SCUTELLAREIN] | 1.16 | 50.6 |
| O=C1/C(=C/c2ccc(O)c(O)c2)Oc2cc(O)ccc21 [SULFURETIN] | 0.903 | 29.6 |
| O=c1cc(-c2ccc(O)cc2)oc2c([C@@H]3O[C@H](CO)[C@@H](O)[C@H](O)[C@H]3O)c(O)cc(O)c12 [VITEXIN] | 1.32 | 48.2 |
